Laboratory results from patent publication US4965283A, “Amino acid esters, process for the preparation thereof and use thereof” (Dr. Willmar Schwabe GmbH & Co., priority 1987, dated 1990).
Counter-ions that a name gives are not always drawn. Like-named read-outs stand apart in the source and are kept apart here.

Tested on: maximum electroshock spasm (MES), extensor spasm in mice
Assay: MES test (maximum electroshock; inhibition of extensor spasm)
Type: in vivo, male mice (NMRI)
Conditions: oral; for protective action [%] after 1 hr / protective action [%] after 3 hrs / responders at 100 mg/kg / responders at 50 mg/kg / responders at 25 mg/kg: n = 10; for ED 50 values / ED 50 values (estimated values) / ED50: MES test, 1 hour after administration; for ED 50 values (estimated values): * estimated from several tests with different dosages; for responders at 100 mg/kg / responders at 50 mg/kg / responders at 25 mg/kg / ED50: Mus musculus, po; for ED50: read-out: ED 50 values
Description: For the determination of the anticonvulsive/anti-epileptic activity of the substances according to the present invention the method described by E. A. Swinyard et al., J. Pharmacol. exp. Therapeut. 106, 319-330 (1952) and by L. A. Woodbury et al., Arch. int. Pharmacodyn., 92, 97-107 (1952) was used. To male mice (NMRI) with a body weight of 20-25 g via corneal electrodes, an alternating current of 50 Hz and 50 mA is applied for 0.2 sec. (HSE-shock stimulation apparatus; type 207). The maximum electroshock spasm (MES) consists of a tonic extension of the rear extremities, the clonic twitch and loss of consciousness. The activity criterion is taken as being the inhibition of the extensor spasm by the substances according to the present invention. Before the experiments the mice had free access to feed and water. The test substances were administered orally as suspensions in 0.2% agar by stomach tubes; the control animals received adequate volumes of agar. 1 hour and 3 hours after administration the test for protective action against MES was carried out.
As percentage action the percentage proportion of those animals which in the MES test were protected 100% against the extensor spasm is given. 10 animals were used per test.
The ED 50 values were determined according to Lichtfield and Wilcoxon J. Pharmacol. exp. Therapeut. 96, 99 (1949) in each case with 4 to 5 animal groups each of 8-10 animals per dosage stage.

[1] = 50 mg/kg, 1 hr after administration
[2] = 50 mg/kg, 3 hrs after administration
[3] = 1 h, 100 mg/kg, 1 hr after administration, read-out: protective action [%] after 1 hr
[4] = 3 h, 100 mg/kg, 3 hrs after administration, read-out: protective action [%] after 3 hrs
[5] = 100 mg/kg, 1 hr after administration
[6] = 100 mg/kg, 3 hrs after administration
[7] = 1 h, 50 mg/kg, 1 hr after administration, read-out: protective action [%] after 1 hr
[8] = 3 h, 50 mg/kg, 3 hrs after administration, read-out: protective action [%] after 3 hrs

| SMILES | ED 50 values (estimated values) [mg/kg] | responders at 100 mg/kg [3] [%] | responders at 100 mg/kg [4] [%] | responders at 50 mg/kg [7] [%] | responders at 50 mg/kg [8] [%] | further results |
| --- | --- | --- | --- | --- | --- | --- |
| COC1=CC(=O)OC1C(OC(=O)CNC(=O)C(C)(C)C)c1ccccc1Cl (single isomer, unassigned; (+)) [Example 152, (+)-threo-5-[2-chlorophenyl-(N-pivaloylglycyloxy)-methyl]-4-methoxy-2(5H)-furanone] | – | – | – | – | – | protective action [%] after 1 hr [1]: 100%; protective action [%] after 3 hrs [2]: 90%; ED 50 values: 16.3 mg/kg |
| COC1=CC(=O)OC1C(OC(=O)[C@@H](N)c1ccccc1)c1ccccc1 (single isomer, unassigned) [108 A] | 70 to 80 | 90 | 0 | – | – | – |
| COC1=CC(=O)OC1C(OC(=O)[C@@H]1CCCN1)c1ccccc1F (single isomer, unassigned) [129 A] | 40 to 50 | – | – | – | – | protective action [%] after 1 hr [5]: 100%; protective action [%] after 3 hrs [6]: 100% |
| Br.COC1=CC(=O)OC1C(OC(=O)CN)c1ccccc1Cl (single isomer, unassigned; (-)) [Example 153] | – | – | – | – | – | protective action [%] after 1 hr [5]: 40%; protective action [%] after 3 hrs [6]: 0% |
| COC1=CC(=O)OC1C(OC(=O)[C@@H]1CCCN1)c1ccccc1C(F)(F)F (single isomer, unassigned) [139 A] | 15 to 20 | – | – | 100 | 50 | – |
| COC1=CC(=O)O[C@H]1[C@H](OC(=O)C(C)(C)N)c1ccccc1Cl (relative stereo) [Example 155, threo-5-[2-chlorophenyl-(2-methylalanyloxy)-methyl]-4-methoxy-2(5H)-furanone-hydrobromide] | 20 to 30 | – | – | – | – | responders at 25 mg/kg (1 h, 1 hr after administration, read-out: protective action [%] after 1 hr): 50%; responders at 25 mg/kg (3 h, 3 hrs after administration, read-out: protective action [%] after 3 hrs): 10% |
| Br.COC1=CC(=O)OC1C(OC(=O)CN)c1ccccc1Cl (single isomer, unassigned; (+)) [Example 151, (+)-threo-5-[2-chlorophenyl-(glycyloxy)-methyl]-4-methoxy-2(5H)-furanone hydrobromide] | – | – | – | – | – | protective action [%] after 1 hr [1]: 100%; protective action [%] after 3 hrs [2]: 100%; ED 50 values: 12.2 mg/kg |
| COC1=CC(=O)OC1C(OC(=O)[C@@H]1CCCN1)c1ccc(Cl)cc1Cl (single isomer, unassigned) [135 A] | 65 to 75 | 100 | 100 | – | – | – |
| COC1=CC(=O)O[C@H]1[C@H](OC(=O)[C@@H]1CCCN1)c1ccccc1Cl [103 B] | – | 50 | 0 | – | – | ED50 (1 h): 95 mg/kg |
| COC1=CC(=O)OC1C(OC(=O)[C@@H](N)CCC(N)=O)c1ccccc1Cl (single isomer, unassigned) [122 A] | 15 to 20 | – | – | 100 | 100 | – |
| COC1=CC(=O)O[C@H]1[C@H](OC(=O)CN)c1ccc(Cl)cc1Cl (relative stereo) [Example 130, threo-5-[2,4-dichlorophenyl-(glycyloxy)-methyl]-4-methoxy-2(5H)-furanone hydrobromide] | 40 to 50 | 100 | 100 | – | – | – |
| COC1=CC(=O)OC1C(OC(=O)[C@@H](N)c1ccccc1)c1ccccc1Cl (single isomer, unassigned) [117 A] | – | – | – | 100 | – | protective action [%] after 3 hrs [2]: 100%; ED50 (1 h): 16 mg/kg |
| COC1=CC(=O)OC1C(OC(=O)[C@H](N)c1ccccc1)c1ccccc1Cl (stereo partly drawn) [119 B] | – | – | – | 100 | 20 | ED50 (1 h): 37.6 mg/kg |
| COC1=CC(=O)O[C@@H]1[C@@H](OC(=O)[C@@H]1CCCN1)c1ccccc1Cl [104 A] | – | – | – | 100 | 100 | – |
| COC1=CC(=O)O[C@H]1[C@H](OC(=O)CCCNC(C)=O)c1ccccc1Cl (relative stereo) [Example 115, threo-5-[4-(N-acetylamino)-butanoyloxy-(2-chlorophenyl)methyl]-4-methoxy-2(5H)-furanone] | 30 to 40 | 100 | 100 | – | – | – |
| COC1=CC(=O)OC1C(OC(=O)[C@@H]1CCCN1)c1ccccc1F (single isomer, unassigned) [129 B] | 95 to 105 | – | – | – | – | protective action [%] after 1 hr [5]: 50%; protective action [%] after 3 hrs [6]: 0% |

| SMILES | ED 50 values (estimated values) [mg/kg] | responders at 100 mg/kg [3] [%] | responders at 100 mg/kg [4] [%] | responders at 50 mg/kg [7] [%] | responders at 50 mg/kg [8] [%] | further results |
| --- | --- | --- | --- | --- | --- | --- |
| COC1=CC(=O)O[C@@H]1[C@@H](OC(=O)[C@@H]1CCCN1)c1ccccc1Cl [103 A] | – | 100 | 100 | – | – | ED50 (1 h): 10.7 mg/kg |
| COC1=CC(=O)O[C@H]1[C@H](OC(=O)CN)c1ccccc1Cl (relative stereo) [Example 112, threo-5-[2-chlorophenyl-glycyloxy)methyl-4-methoxy-2(5H)-furanone hydrochloride] | – | – | – | – | – | protective action [%] after 3 hrs (50 mg/kg, 3 hrs after administration, hydrochloride): 70%; ED 50 values (hydrochloride, 60 min): 22.2 mg/kg |
| COC1=CC(=O)O[C@H]1[C@H](OC(=O)CN)c1ccccc1 (relative stereo) [Example 105, threo-5-[glycyloxy-(phenyl)-methyl]-4-methoxy-2(5H)-furanone hydrobromide] | – | 70 | 0 | – | – | ED50 (1 h): 87.5 mg/kg |
| COC1=CC(=O)OC1C(OC(=O)[C@@H](N)c1ccccc1)c1ccccc1Cl (single isomer, unassigned) [117 B] | – | – | – | – | – | protective action [%] after 1 hr [1]: 90%; protective action [%] after 3 hrs [2]: 0%; ED 50 values (60 min): 25.3 mg/kg |
| COC1=CC(=O)O[C@H]1[C@H](OC(=O)CNC(C)=O)c1ccccc1Cl (relative stereo) [Example 106, threo-5-[N-acetylglycyloxy-(2-chlorophenyl)-methyl]-4-methoxy-2(5H)-furanone] | – | – | – | 100 | 70 | ED50 (1 h): 23.1 mg/kg |
| COC1=CC(=O)OC1C(OC(=O)[C@H](Cc1ccccc1)N=C(C)C)c1ccccc1Cl (single isomer, unassigned) [121 A] | – | – | – | 100 | 90 | – |
| COC1=CC(=O)OC1C(OC(=O)[C@@H]1CCCN1C(=O)OCc1ccccc1)c1ccccc1C(F)(F)F (single isomer, unassigned) [138 A] | – | 30 | 20 | – | – | – |
| COC1=CC(=O)OC1C(OC(=O)[C@@H]1CCCN1)c1ccccc1Br (single isomer, unassigned) [127 A] | – | – | – | 100 | 100 | – |
| COC1=CC(=O)O[C@H]1[C@H](OC(=O)C1(N)CCCCC1)c1ccccc1Cl (relative stereo) [Example 157, threo-5-[1-amino-1-cyclohexylcarbonyloxy-(2-chlorophenyl)-methyl]-4-methoxy-2(5H)-furanone hydrobromide] | – | 100 | 40 | – | – | ED50 (1 h): 27.5 mg/kg |
| COC1=CC(=O)OC1C(OC(=O)[C@H](CCSC)NC(C)=O)c1ccccc1Cl (single isomer, unassigned) [124 A] | 25 to 35 | 100 | 20 | – | – | – |
| COC1=CC(=O)OC1C(OC(=O)[C@@H]1CCCN1)c1cc(Cl)ccc1Cl (single isomer, unassigned) [137 A] | – | – | – | 100 | 100 | – |
| COC1=CC(=O)O[C@H]1[C@H](OC(=O)CN)c1ccccc1Cl (relative stereo) [Example 111, threo-5-[2-chlorophenyl-(glycyloxy)-methyl]-4-methoxy-2(5H)-furanone hydrobromide] | – | – | – | 100 | 80 | ED50 (1 h): 24.2 mg/kg |
| COC1=CC(=O)O[C@H]1[C@H](OC(=O)[C@@H]1CCCN1)c1ccccc1Cl [104 B] | – | – | – | – | – | protective action [%] after 1 hr [5]: 60%; protective action [%] after 3 hrs [6]: 0%; ED 50 values (60 min): 105 mg/kg |
| COC1=CC(=O)O[C@H]1[C@H](OC(=O)CN)c1ccc(Cl)cc1Cl (relative stereo) [Example 131, threo-5-[2,4-dichlorophenyl-(glycyloxy)-methyl]-4-methoxy-2(5H)-furanone hydrochloride] | – | – | – | – | – | ED50 (1 h): 54.5 mg/kg |
| COC1=CC(=O)O[C@H]1[C@H](OC(=O)CCCN)c1ccccc1Cl (relative stereo) [Example 113, threo-5-[4-aminobutanoyloxy-(2-chlorophenyl)-methyl]-4-methoxy-2(5H)-furanone hydrobromide] | 25 to 35 | – | – | 100 | 50 | – |
